The source made the active and inactive calls. The rule behind the calls is not given here.
Test system: CCRIS mutagenicity, Ames/micronucleus/aberration tests
Assay: CCRIS mutagenicity studies
[1] = Test System: AMES SALMONELLA TYPHIMURIUM, Strain/Indicator: TA98, Metabolic Activation: NONE, Method: PREINCUBATION
[2] = Test System: AMES SALMONELLA TYPHIMURIUM, Strain/Indicator: TA100, Metabolic Activation: NONE, Method: PREINCUBATION
[3] = Test System: AMES SALMONELLA TYPHIMURIUM, Strain/Indicator: TA100, Metabolic Activation: RAT, LIVER, S-9, AROCLOR 1254 (10%), Method: PREINCUBATION
[4] = Test System: AMES SALMONELLA TYPHIMURIUM, Strain/Indicator: TA1535, Metabolic Activation: HAMSTER, LIVER, S-9, AROCLOR 1254 (10%), Method: PREINCUBATION
[5] = Test System: AMES SALMONELLA TYPHIMURIUM, Strain/Indicator: TA1535, Metabolic Activation: NONE, Method: PREINCUBATION
[6] = Test System: AMES SALMONELLA TYPHIMURIUM, Strain/Indicator: TA1535, Metabolic Activation: RAT, LIVER, S-9, AROCLOR 1254 (10%), Method: PREINCUBATION
[7] = Test System: AMES SALMONELLA TYPHIMURIUM, Strain/Indicator: TA1537, Metabolic Activation: NONE, Method: PREINCUBATION
[8] = Test System: AMES SALMONELLA TYPHIMURIUM, Strain/Indicator: TA98, Metabolic Activation: NONE, Method: STANDARD PLATE
[9] = Test System: AMES SALMONELLA TYPHIMURIUM, Strain/Indicator: TA98, Metabolic Activation: RAT, LIVER, S-9, AROCLOR 1254, Method: STANDARD PLATE
[10] = Test System: AMES SALMONELLA TYPHIMURIUM, Strain/Indicator: TA100, Metabolic Activation: NONE, Method: STANDARD PLATE
[11] = Test System: AMES SALMONELLA TYPHIMURIUM, Strain/Indicator: TA100, Metabolic Activation: RAT, LIVER, S-9, AROCLOR 1254, Method: STANDARD PLATE

Measured: mutagenic call

CC(CC(=O)O)C(=O)O (stereo not drawn)
inactive: Test System: AMES SALMONELLA TYPHIMURIUM, Strain/Indicator: TA97, Metabolic Activation: HAMSTER, LIVER, S-9, AROCLOR 1254 (10%), Method: PREINCUBATION inactive; negative | Test System: AMES SALMONELLA TYPHIMURIUM, Strain/Indicator: TA97, Metabolic Activation: HAMSTER, LIVER, S-9, AROCLOR 1254 (30%), Method: PREINCUBATION inactive; negative | Test System: AMES SALMONELLA TYPHIMURIUM, Strain/Indicator: TA97, Metabolic Activation: NONE, Method: PREINCUBATION inactive; negative | Test System: AMES SALMONELLA TYPHIMURIUM, Strain/Indicator: TA97, Metabolic Activation: RAT, LIVER, S-9, AROCLOR 1254 (10%), Method: PREINCUBATION inactive; negative | Test System: AMES SALMONELLA TYPHIMURIUM, Strain/Indicator: TA97, Metabolic Activation: RAT, LIVER, S-9, AROCLOR 1254 (30%), Method: PREINCUBATION inactive; negative | Test System: AMES SALMONELLA TYPHIMURIUM, Strain/Indicator: TA98, Metabolic Activation: HAMSTER, LIVER, S-9, AROCLOR 1254 (10%), Method: PREINCUBATION inactive; negative | Test System: AMES SALMONELLA TYPHIMURIUM, Strain/Indicator: TA98, Metabolic Activation: HAMSTER, LIVER, S-9, AROCLOR 1254 (30%), Method: PREINCUBATION inactive; negative | [1] inactive; negative | Test System: AMES SALMONELLA TYPHIMURIUM, Strain/Indicator: TA98, Metabolic Activation: RAT, LIVER, S-9, AROCLOR 1254 (10%), Method: PREINCUBATION inactive; negative | Test System: AMES SALMONELLA TYPHIMURIUM, Strain/Indicator: TA98, Metabolic Activation: RAT, LIVER, S-9, AROCLOR 1254 (30%), Method: PREINCUBATION inactive; negative | Test System: AMES SALMONELLA TYPHIMURIUM, Strain/Indicator: TA100, Metabolic Activation: HAMSTER, LIVER, S-9, AROCLOR 1254 (10%), Method: PREINCUBATION inactive; negative | Test System: AMES SALMONELLA TYPHIMURIUM, Strain/Indicator: TA100, Metabolic Activation: HAMSTER, LIVER, S-9, AROCLOR 1254 (30%), Method: PREINCUBATION inactive; negative | [2] inactive; negative | [3] inactive; negative | Test System: AMES SALMONELLA TYPHIMURIUM, Strain/Indicator: TA100, Metabolic Activation: RAT, LIVER, S-9, AROCLOR 1254 (30%), Method: PREINCUBATION inactive; negative | [4] inactive; negative | Test System: AMES SALMONELLA TYPHIMURIUM, Strain/Indicator: TA1535, Metabolic Activation: HAMSTER, LIVER, S-9, AROCLOR 1254 (30%), Method: PREINCUBATION inactive; negative | [5] inactive; negative | [6] inactive; negative | Test System: AMES SALMONELLA TYPHIMURIUM, Strain/Indicator: TA1535, Metabolic Activation: RAT, LIVER, S-9, AROCLOR 1254 (30%), Method: PREINCUBATION inactive; negative | Test System: AMES SALMONELLA TYPHIMURIUM, Strain/Indicator: TA1537, Metabolic Activation: HAMSTER, LIVER, S-9, AROCLOR 1254 (30%), Method: PREINCUBATION inactive; negative | [7] inactive; negative | Test System: AMES SALMONELLA TYPHIMURIUM, Strain/Indicator: TA1537, Metabolic Activation: RAT, LIVER, S-9, AROCLOR 1254 (30%), Method: PREINCUBATION inactive; negative

O=S(=O)(O)c1ccc2c(N=Nc3ccccc3)c(O)ccc2c1
inactive: [1] inactive; negative | Test System: AMES SALMONELLA TYPHIMURIUM, Strain/Indicator: TA98, Metabolic Activation: RAT, LIVER, S-9, PHENOBARBITAL, Method: PREINCUBATION inactive; negative | [2] inactive; negative | Test System: AMES SALMONELLA TYPHIMURIUM, Strain/Indicator: TA100, Metabolic Activation: RAT, LIVER, S-9, PHENOBARBITAL, Method: PREINCUBATION inactive; negative

Nc1c2ccccc2nc2ccc(I)cc12
active: [7] active; positive

Nc1ccc(N)c(S(=O)(=O)O)c1
active: Test System: UDS RODENT HEPATOCYTES, Strain/Indicator: THY INCORP (NON-S-PHASE), Metabolic Activation: NONE, Method: AUTORADIOGRAPHY active; positive
inactive: [1] inactive; negative | Test System: AMES SALMONELLA TYPHIMURIUM, Strain/Indicator: TA98, Metabolic Activation: RAT, LIVER, S-9, AROCLOR 1254, Method: PREINCUBATION inactive; negative | [2] inactive; negative | Test System: AMES SALMONELLA TYPHIMURIUM, Strain/Indicator: TA100, Metabolic Activation: RAT, LIVER, S-9, AROCLOR 1254, Method: PREINCUBATION inactive; negative

O=c1[nH]c2ccccc2n1C1CCN(CCCC(c2ccc(F)cc2)c2ccc(F)cc2)CC1
inactive: [8] inactive; negative | [9] inactive; negative | [10] inactive; negative | [11] inactive; negative | Test System: AMES SALMONELLA TYPHIMURIUM, Strain/Indicator: TA1535, Metabolic Activation: NONE, Method: STANDARD PLATE inactive; negative | Test System: AMES SALMONELLA TYPHIMURIUM, Strain/Indicator: TA1535, Metabolic Activation: RAT, LIVER, S-9, AROCLOR 1254, Method: STANDARD PLATE inactive; negative | Test System: AMES SALMONELLA TYPHIMURIUM, Strain/Indicator: TA1537, Metabolic Activation: NONE, Method: STANDARD PLATE inactive; negative | Test System: AMES SALMONELLA TYPHIMURIUM, Strain/Indicator: TA1537, Metabolic Activation: RAT, LIVER, S-9, AROCLOR 1254, Method: STANDARD PLATE inactive; negative

Cc1ccc(OCC2CO2)cc1 (stereo not drawn)
active: [2] active; positive | [3] active; positive | [4] active; positive | [5] active; positive | [6] active; positive

CCCOc1cc(N=Nc2ccccc2)ccc1N=Nc1c(S(=O)(=O)O)cc2ccc(N)cc2c1O
inactive: [8] inactive; negative | [10] inactive; negative | [11] inactive; negative | Test System: AMES SALMONELLA TYPHIMURIUM, Strain/Indicator: TA1538, Metabolic Activation: NONE, Method: STANDARD PLATE inactive; negative
active: [9] active; positive | Test System: AMES SALMONELLA TYPHIMURIUM, Strain/Indicator: TA1538, Metabolic Activation: RAT, LIVER, S-9, AROCLOR 1254, Method: STANDARD PLATE active; positive

C#CC(OC(=O)NC1CCCCC1)(c1ccccc1)c1ccccc1
active: [10] active; positive
